How the values were obtained:
[1] = system: Phoenix Eco cells; assay: Cellular uptake of fluorescein-labeled oligomers; format: cell-based
[2] = system: Phoenix Eco cells; assay: Live-cell confocal microscopy, intracellular localization; format: cell-based
[3] = estimated; 5 µM oligomer, 37°C, DMEM/10% FBS; denaturing gel, densitometry
[4] = system: Phoenix Eco cells

Molecule	time of maximum uptake ([1]; in the presence of LFA)	fluorescence in treated cells (in words) ([1]; in the presence of Lipofectamine-2000 (LFA), oligomer or its duplex with CT-ODN, after 4 h already)	intracellular distribution (in words) [2]	half-life [3]	cell viability [4]
pHypNA TCACTCAACACTCAC-Flu: fluorescein-labeled trans-L pHypNA oligomer, sequence TCACTCAACACTCAC-Flu (pHypNA backbone; fluorescein)	20 to 24 h	high level of fluorescence	evenly distributed in the cytoplasm with preferential staining of the nucleus	~72 h	
CCN(CC)CCCC(C)Nc1ccnc2cc(Cl)ccc12 (centres unmarked) [chloroquine]					80–85%
